Reference: patent publication US6162875A, “Low nitrosamine systems for rubber vulcanization” (Robinson Brothers Limited, priority 1992, dated 2000)

Assays:
[1] = system: bacterial strains TA 1535, TA 1537, TA 1538, TA 98 and TA 100; test: Ames test for mutagenicity, revertant colony counts; details: 50, 150, 500, 1500, 5000 μg/plate, with and without metabolic activation, five strains
[2] = system: bacterial strains TA 1535, TA 1537, TA 1538, TA 98 and TA 100; test: Preliminary test for toxicity to the bacterial strains (Ames test); details: for precipitates observed: 5000 μg dose, all strains

Molecule | increase of revertant colony counts over control values [1] | precipitates observed [2] | toxicity to the bacterial strains ([2]; doses up to and including 5000 μg/plate) | mutagenic to TA 1535 (TA 1535) | mutagenic to TA 100 (TA 100)
N-nitrosodiisononylamine | no increase of revertant colony counts over control values |  |  |  | 
O=NN(Cc1ccccc1)Cc1ccccc1 [N-nitrosodibenzylamine] | no increase of revertant colony counts over control values | precipitates were observed | non-toxic |  | 
zinc diisononyldithiocarbamate [Example 1] | no increase of revertant colony counts over control values | precipitates were observed |  |  | 
CN(C)N=O [dimethylnitrosamine] |  |  |  | mutagenic | mutagenic
